pEC50: −log10 of the molar value.
How the values were obtained:
CCRF-CEM cells [1] = assay: cells; type: cell-based, human; conditions: read-out: EC50 for growth inhibition
Protocol: Inhibition of growth of human cell lines in vitro. Inhibition of growth of CCRF-CEM in continuous and intermittent drug exposures was measured. EC50 values were determined from plots of percent control growth versus the logarithm of drug concentration.
[…]; n=2). […]; n=2). Values presented are average±S.D. for n>2 and average±range for n=2. […] […]; EC50 data may therefore underestimate the biological potency.

CCRF-CEM cells [2] = assay: [3H]leucovorin uptake in CCRF-CEM cells; type: cell-based, human
Protocol: (§1) Quantitation of folate and antifolate uptake. The method is essentially as follows. Briefly, logarithmically growing (3-5×10^5/ml) CCRF-CEM cells were harvested at room temperature by centrifugation at 1000×g for 5 min. After washing with the appropriate medium, cells were suspended at ≈2×10^7 cells/ml for use in transport studies. […] Anion-free MHS contains 250 mM sucrose and 20 mM HEPES, titrated to pH 7.4 with MgO. […] Uptake was measured as a function of time for 30 min (for rate and extent measurements) or over 5 min (studies requiring initial velocities). […] Uptake was terminated by diluting 100 μL samples into 1 ml of iced 0.9% NaCl. […] The supernatant was aspirated. The cell pellet was washed once with 1 ml iced 0.9% NaCl and centrifuged as above. The washed pellet was solubilized in 1 ml of 0.3% Triton X-100 by incubation for 60 min at 37° C. The solubilized pellet was transferred to a scintillation vial, 10 ml of Liquiscint (National Diagnostics, Atlanta, Ga.) was added and radioactivity was quantitated in a Beckman Model LS6500 liquid scintillation counter. Separate samples at the longest incubation time used in a particular experiment were harvested for HPLC analysis of intracellular contents as above, except that after the second wash the pellets were extracted with 1 ml boiling 0.1 M Na-phosphate, pH 5.5. The extract was clarified by centrifugation and the supernatant was filtered through an MPS-1 filter unit (Amicon) prior to HPLC analysis.

CCRF-CEM cells [3] = assay: [3H]MTX uptake (initial velocity and 30 min accumulation) in CCRF-CEM cells; type: cell-based, human
Protocol: as §1

CCRF-CEM = conditions: 10 μg/ml, within 5 min; cited from earlier work
CCRF-CEM cells [4] = assay: Effect of protein kinase inhibitors on [3H]MTX uptake; type: cell-based, human
Description: To determine whether protein phosphorylation is involved in the mechanism of Z potentiation, we began studies with a series of protein kinase (PK) inhibitors (PKI).

[5] = target: T1, reduced folate carrier (RFC) (Homo sapiens, UniProt P41440); assay: Kinetic constants for influx of [3H]MTX by CCRF-CEM cells; type: cell-based; conditions: influx of [3H]MTX; pre-incubation with solvent (MTX alone), 1 μM TMTX, or 1 μM TMTX + 0.5 mM Z
T1 construct: endogenous in cells; host or cells: CCRF-CEM (parental)
T1 sequence (P41440 1-591): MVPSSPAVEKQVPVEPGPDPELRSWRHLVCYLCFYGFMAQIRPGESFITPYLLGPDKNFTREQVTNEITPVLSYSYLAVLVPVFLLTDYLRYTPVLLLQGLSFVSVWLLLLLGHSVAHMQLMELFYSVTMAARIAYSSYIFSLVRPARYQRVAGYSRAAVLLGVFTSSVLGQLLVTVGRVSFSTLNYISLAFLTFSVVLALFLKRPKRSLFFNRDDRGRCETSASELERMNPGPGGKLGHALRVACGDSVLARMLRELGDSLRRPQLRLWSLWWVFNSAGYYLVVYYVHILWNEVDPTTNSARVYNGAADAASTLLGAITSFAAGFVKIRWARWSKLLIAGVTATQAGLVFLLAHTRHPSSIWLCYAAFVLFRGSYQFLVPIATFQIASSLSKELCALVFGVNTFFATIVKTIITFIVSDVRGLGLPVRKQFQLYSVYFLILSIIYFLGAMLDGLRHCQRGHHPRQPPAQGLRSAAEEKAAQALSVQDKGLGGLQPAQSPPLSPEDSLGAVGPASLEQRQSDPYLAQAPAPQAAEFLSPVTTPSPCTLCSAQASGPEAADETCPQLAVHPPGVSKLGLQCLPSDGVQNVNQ
Protocol: as §1
Inhibition of the vi of uptake was measured after pre-incubation of CCRF-CEM cells either with TMTX alone (measuring inhibition at the RFC) or with TMTX+Z (measuring inhibition during Z potentiation). […] All studies were carried out in standard transport medium. Inhibitory potency was measured in two series of experiments and AMT was included in each series as an internal control. Values are average±range of two determinations. […] Values are average±range for duplicate determinations.

CCRF-CEM cells [6] = assay: Subcellular localization of [3H]MTX; type: cell-based, human; conditions: 30 min uptake of 2 μM [3H]MTX; 2 μM TMTX, 500 μM Z
Protocol: Subcellular fractionation. […] Cells were diluted 9-fold in iced 0.9% NaCl, centrifuged at 1000×g for 5 min and washed once with 40 ml iced saline. All subsequent steps were performed at 4°. Cells were homogenized as previously described, except that hypotonic buffer at 20-fold the packed cell volume was used, and the homogenate was centrifuged for 6 min at 1000×g to yield a nuclear pellet (also containing unlysed cells and large debris) and a post-nuclear supernatant (PNS). Based on controls using nonradiolabeled cells, >91% of the cells would be lysed during homogenization. The PNS was centrifuged at 17,000×g to yield a combined mitochondria-lysosome pellet. The resulting supernatant was centrifuged at 100,000×g for 60 min to yield the 100,000×g supernatant (cytosol). The 100,000×g pellet (microsomes) and the combined mitochondria-lysosome pellet were each washed in isotonic buffer and centrifuged at their respective g-forces. All pellets were solubilized in 0.3% Triton X-100 by incubating at 37° for 1 hr; 1 ml was transferred to a scintillation vial for quantitation. Triton X-100 was added to the cytosol to a final concentration of 0.3% and a 1 ml aliquot was quantitated. Radioactivity in each fraction was corrected for a blank containing 0.3% Triton X-100.

[7] = 1 μM [3H]LV, 10 min preincubation, 1 μM TMTX, 0.5 mM Z

## Cc1ccc2nc(N)[nH]c(=O)c2c1Sc1ccncc1 [AG337]
CCRF-CEM cells [1]
  pEC50: 6.22
CCRF-CEM cells [2]; 20 μM
  Effect on potentiation of LV uptake induced by TMTX+Z: completely block
CCRF-CEM cells [2]; 10 min preincubation at 2 or 20 μM, presence or absence of Z
  Potentiation of [3H]LV uptake: does not potentiate

## C[C@@H]1C[C@@H]([C@H](O)CC2CC(=O)NC(=O)C2)C(=O)[C@@H](C)C1 [CHX, cycloheximide]
CCRF-CEM cells [3]; 10 μg/ml CHX preincubated 10 min, Z added for last 5 min
  Potentiation of [3H]MTX influx by 0.5 mM Z after protein synthesis inhibition: potentiation still occurred
CCRF-CEM
  Inhibition of protein synthesis: completely inhibited

## O=c1c(O)c(-c2ccc(O)c(O)c2)oc2cc(O)cc(O)c12 [Quercetin, quercetin]
CCRF-CEM cells [4]; 50 μM
  Decrease of 30 min accumulation +TMTX+Z: 21%
  Decrease of initial influx rate: 43%
CCRF-CEM cells [4]; 100 μM
  Decrease of 30 min accumulation +TMTX+Z: 38%
  Decrease of initial influx rate: 55%
CCRF-CEM cells [4]; 50 or 100 μM
  Increase of uptake +TMTX at 30 min: 10-12%

## COc1cc(NCc2ccc3nc(N)nc(N)c3c2C)cc(OC)c1OC [TMTX, trimetrexate]
CCRF-CEM cells [3]; 10 min preincubation with 2 μM TMTX, no Z
  Extent of [3H]MTX accumulation at 30 min relative to absence of TMTX: 90-100%
[5]
  Kt: 5.3 ± 0.6 µM
  Vmax: 7.2 ± 0.6 pmol/min/10^7 cells
  Vmax/Kt: 1.36
CCRF-CEM cells [2]; [7]
  Increase in 30 min accumulation (extent) of [3H]LV: 1.6 fold
  Increase in vi of [3H]LV uptake: 1.4 fold
CCRF-CEM cells [6]
  Relative radioactivity, Cytosol: 88.9%
  Relative radioactivity, Microsomes: 0.2%
  Relative radioactivity, Mito-Lysosomes: 0.4%
  Relative radioactivity, Nuclear Pellet: 10.5%
  Total [3H]MTX recovered in all four fractions: 338.4 pmol
  [3H]MTX/fraction, Cytosol: 300.3 pmol
  [3H]MTX/fraction, Microsomes: 0.7 pmol
  [3H]MTX/fraction, Mito-Lysosomes: 1.3 pmol
  [3H]MTX/fraction, Nuclear Pellet: 35.5 pmol
